According to PubChem BioAssay (NCI):
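A five-concentration, 48-hour dose response in 96-well plates underlies each endpoint, interpolated linearly between surrounding concentrations. GI50 marks 50% less growth. TGI is the concentration that stops growth completely.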

Columns and labels:
Assay in all cases: NCI tumour cell line growth inhibition, 48 h
NCI-H522 lung = system: NCI-H522 lung
MDA-MB-231 breast = system: MDA-MB-231 breast
NCI-H460 lung = system: NCI-H460 lung
HT29 colon = system: HT29 colon
UO-31 renal = system: UO-31 renal
ACHN renal = system: ACHN renal
UACC-62 melanoma = system: UACC-62 melanoma
SNB-75 CNS = system: SNB-75 CNS
T-47D breast = system: T-47D breast
BT-549 breast = system: BT-549 breast
SF-295 CNS = system: SF-295 CNS
SR leukemia = system: SR leukemia
RPMI-8226 leukemia = system: RPMI-8226 leukemia
PC-3 prostate = system: PC-3 prostate
U251 CNS = system: U251 CNS
MCF7 breast = system: MCF7 breast
SF-539 CNS = system: SF-539 CNS
MDA-MB-468 breast = system: MDA-MB-468 breast
MALME-3M melanoma = system: MALME-3M melanoma
HCT-116 colon = system: HCT-116 colon
CCRF-CEM leukemia = system: CCRF-CEM leukemia
OVCAR-5 ovarian = system: OVCAR-5 ovarian
786-0 renal = system: 786-0 renal
A498 renal = system: A498 renal
HL-60(TB) leukemia = system: HL-60(TB) leukemia
OVCAR-8 ovarian = system: OVCAR-8 ovarian
SK-OV-3 ovarian = system: SK-OV-3 ovarian
RXF 393 renal = system: RXF 393 renal
KM12 colon = system: KM12 colon
HOP-62 NSCLC = system: HOP-62 NSCLC
UACC-257 melanoma = system: UACC-257 melanoma
NCI-H23 lung = system: NCI-H23 lung
M14 melanoma = system: M14 melanoma
TK-10 renal = system: TK-10 renal
HCT-15 colon = system: HCT-15 colon
COLO 205 colon = system: COLO 205 colon
NCI-H226 lung = system: NCI-H226 lung
DU-145 prostate = system: DU-145 prostate
SW-620 colon = system: SW-620 colon
A549 NSCLC = system: A549 NSCLC
SK-MEL-5 melanoma = system: SK-MEL-5 melanoma
CAKI-1 renal = system: CAKI-1 renal
K-562 leukemia = system: K-562 leukemia
OVCAR-4 ovarian = system: OVCAR-4 ovarian
SNB-19 CNS = system: SNB-19 CNS
SK-MEL-28 melanoma = system: SK-MEL-28 melanoma
HOP-92 NSCLC = system: HOP-92 NSCLC
EKVX NSCLC = system: EKVX NSCLC
OVCAR-3 ovarian = system: OVCAR-3 ovarian
SN12C renal = system: SN12C renal
LOX IMVI melanoma = system: LOX IMVI melanoma
MDA-MB-435 = system: MDA-MB-435
IGROV1 ovarian = system: IGROV1 ovarian
HS 578T breast = system: HS 578T breast
HCC-2998 colon = system: HCC-2998 colon
MOLT-4 leukemia = system: MOLT-4 leukemia
SF-268 CNS = system: SF-268 CNS

CC(C)Sc1nc(NCCc2c[nH]c3ccccc23)c(C#N)c(-c2ccc(F)cc2)n1
GI50 (NCI-H522 lung): 12.5 µM | TGI (NCI-H522 lung): 26 µM | GI50 (MDA-MB-231 breast): 9.08 µM | TGI (MDA-MB-231 breast): 22.1 µM | GI50 (NCI-H460 lung): 4.25 µM | TGI (NCI-H460 lung): 15.1 µM | GI50 (HT29 colon): 4.61 µM | TGI (HT29 colon): 16 µM | GI50 (UO-31 renal): 11.6 µM | TGI (UO-31 renal): 24.1 µM | GI50 (ACHN renal): 11.1 µM | TGI (ACHN renal): 23.1 µM | GI50 (UACC-62 melanoma): 12.9 µM | TGI (UACC-62 melanoma): 26.6 µM | GI50 (SNB-75 CNS): 13.6 µM | TGI (SNB-75 CNS): 47.2 µM | GI50 (T-47D breast): 4.82 µM | TGI (T-47D breast): 17.3 µM | GI50 (BT-549 breast): 11.7 µM | TGI (BT-549 breast): 25 µM | GI50 (SF-295 CNS): 12 µM | TGI (SF-295 CNS): 25.6 µM | GI50 (SR leukemia): 2.92 µM | TGI (SR leukemia): 28.7 µM | GI50 (RPMI-8226 leukemia): 6.7 µM | TGI (RPMI-8226 leukemia): 49.9 µM | GI50 (PC-3 prostate): 5.38 µM | TGI (PC-3 prostate): 40.7 µM | GI50 (U251 CNS): 7.65 µM | TGI (U251 CNS): 20.2 µM | GI50 (MCF7 breast): 5.42 µM | TGI (MCF7 breast): 18.8 µM | GI50 (SF-539 CNS): 10.3 µM | TGI (SF-539 CNS): 23.6 µM | GI50 (MDA-MB-468 breast): 3.21 µM | TGI (MDA-MB-468 breast): 12 µM | GI50 (MALME-3M melanoma): 14.1 µM | TGI (MALME-3M melanoma): 27.2 µM | GI50 (HCT-116 colon): 3.75 µM | TGI (HCT-116 colon): 14.1 µM | GI50 (CCRF-CEM leukemia): 6.34 µM | TGI (CCRF-CEM leukemia): 65.6 µM | GI50 (OVCAR-5 ovarian): 12.6 µM | TGI (OVCAR-5 ovarian): 25.1 µM | GI50 (786-0 renal): 10.6 µM | TGI (786-0 renal): 22.7 µM | GI50 (A498 renal): 16.4 µM | TGI (A498 renal): 32.2 µM | GI50 (HL-60(TB) leukemia): 11.4 µM | TGI (HL-60(TB) leukemia): 54.5 µM | GI50 (OVCAR-8 ovarian): 11.6 µM | TGI (OVCAR-8 ovarian): 26.1 µM | GI50 (SK-OV-3 ovarian): 17.2 µM | TGI (SK-OV-3 ovarian): 49.3 µM | GI50 (RXF 393 renal): 4.32 µM | TGI (RXF 393 renal): 16.5 µM | GI50 (KM12 colon): 4.92 µM | TGI (KM12 colon): 17.9 µM | GI50 (HOP-62 NSCLC): 1.97 µM | TGI (HOP-62 NSCLC): 4.12 µM | GI50 (UACC-257 melanoma): 15.4 µM | TGI (UACC-257 melanoma): 32.1 µM | GI50 (NCI-H23 lung): 14.3 µM | TGI (NCI-H23 lung): 28.3 µM | GI50 (M14 melanoma): 9.86 µM | TGI (M14 melanoma): 23.9 µM | GI50 (TK-10 renal): 17.4 µM | TGI (TK-10 renal): 32.4 µM | GI50 (HCT-15 colon): 3.74 µM | TGI (HCT-15 colon): 14.7 µM | GI50 (COLO 205 colon): 7.98 µM | TGI (COLO 205 colon): 20.7 µM | GI50 (NCI-H226 lung): 9.18 µM | TGI (NCI-H226 lung): 21.9 µM | GI50 (DU-145 prostate): 12 µM | TGI (DU-145 prostate): 27 µM | GI50 (SW-620 colon): 7.84 µM | TGI (SW-620 colon): 21.1 µM | GI50 (A549 NSCLC): 12.7 µM | TGI (A549 NSCLC): 26.4 µM | GI50 (SK-MEL-5 melanoma): 6.05 µM | TGI (SK-MEL-5 melanoma): 18.6 µM | GI50 (CAKI-1 renal): 10.1 µM | TGI (CAKI-1 renal): 22.2 µM | GI50 (K-562 leukemia): 4.87 µM | TGI (K-562 leukemia): > 100 µM | GI50 (OVCAR-4 ovarian): 11.4 µM | TGI (OVCAR-4 ovarian): 28.8 µM | GI50 (SNB-19 CNS): 14.9 µM | TGI (SNB-19 CNS): 31 µM | GI50 (SK-MEL-28 melanoma): 12.7 µM | TGI (SK-MEL-28 melanoma): 27.1 µM | GI50 (HOP-92 NSCLC): 13.1 µM | TGI (HOP-92 NSCLC): 30.1 µM | GI50 (EKVX NSCLC): 11.4 µM | TGI (EKVX NSCLC): 24.5 µM | GI50 (OVCAR-3 ovarian): 13.3 µM | TGI (OVCAR-3 ovarian): 27.7 µM | GI50 (SN12C renal): 12.5 µM | TGI (SN12C renal): 25.1 µM | GI50 (LOX IMVI melanoma): 3.65 µM | TGI (LOX IMVI melanoma): 12.8 µM | GI50 (MDA-MB-435): 13.4 µM | TGI (MDA-MB-435): 26.8 µM | GI50 (IGROV1 ovarian): 12.3 µM | TGI (IGROV1 ovarian): 26.3 µM | GI50 (HS 578T breast): 10.2 µM | TGI (HS 578T breast): 43.4 µM | GI50 (HCC-2998 colon): 7.67 µM | TGI (HCC-2998 colon): 20.2 µM | GI50 (MOLT-4 leukemia): 6.25 µM | TGI (MOLT-4 leukemia): 39.8 µM | GI50 (SF-268 CNS): 12.8 µM | TGI (SF-268 CNS): 42.2 µM
